In patent US20220401481A1, “DOSING REGIMENS FOR THE MOBILIZATION OF HEMATOPOIETIC STEM AND PROGENITOR CELLS” (Magenta Therapeutics, Inc., priority 2019, published 2022):
Several values for one entry are separate records, joined by “and”; a condition that tells them apart may be missing. Equal entries are not always repeated. Where two headings read alike, the source gives them in different places.

Key:
CD34+ cells [1] = settings: historical plerixafor alone data, Devine et al., Blood 2008 (n=25); cited from earlier work
CD34+ cells [2] = assay: Phase 1 clinical trial: mobilization of CD34+ cells into peripheral blood (multicolor flow cytometry); settings: for % ≥40/μL: plerixafor
CD34+CD90+CD45RA− cells = assay: Phase 1 clinical trial: mobilization of CD34+CD90+CD45RA− cells into peripheral blood (flow cytometry); settings: plerixafor alone
[3] = tested on: T cells, B cells and NK cells; settings: cited from earlier work
[4] = tested on: hematopoietic stem and progenitor cell mobilization; settings: described in U.S. Pat. No. 6,447,766; cited from earlier work
[5] = Part C, first day, combination (0.03 or […]) 8 patients, plerixafor alone
[6] = Part C, placebo + plerixafor on Day 2 (n=2)
[7] = Chen et al., 2019, plerixafor N = 50+, median yield of 2 LP
[8] = Devine et al, 2008, median yield of 1 LP, plerixafor N = 24, G-CSF N = 8

## c1cc(CN2CCCNCCNCCCNCC2)ccc1CN1CCCNCCNCCCNCC1 [Plerixafor, 1,1′-[1,4-phenylenebis(methylene)]-bis-1,4,8,11-tetra-azacyclotetradecane]
CD34+ cells [1]
  Patients with peak CD34+ ≥20 cells/μL: 28%
  Patients with peak CD34+ ≥40 cells/μL: 4%
CD34+ cells [2]; 2-8 hours post plerixafor dose, plerixafor alone
  CD34+ AUC2-8h Median (range): 102 (61-341)
CD34+ cells [2]; Part B
  % ≥40/μL: 21% (3/16)
CD34+ cells [2]; Part B, plerixafor (placebo + plerixafor) on Day 1
  Peak CD34+ (#/μL) Median (range): 26 (13-78) #/μL
CD34+ cells [2]; [5]
  Number of patients with peak CD34+ count of at least 20 cells per microliter: none
  Number of patients with peak CD34+ count of at least 40 cells per microliter: none
CD34+ cells [2]; [6]
  Peak CD34+ (#/μL) Median (range): 17 (12-22) #/μL
  Percent ≥20/μL: 50 (1/2) %
CD34+ cells [2]; Part C, plerixafor (placebo + plerixafor) on Day 1 (n=2)
  Peak CD34+ (#/μL) Median (range): 18 (16-20) #/μL
CD34+ cells [2]; Part C, first day (n=2)
  % ≥40/μL: 0% (0/2)
CD34+ cells [2]; Pooled B + C
  % ≥40/μL: 14% (2/14)
CD34+ cells [2]; Pooled B + C, plerixafor (placebo + plerixafor) on Day 1
  Peak CD34+ (#/μL) Median (range): 20 (13-78) #/μL and 23 (13-78) #/μL
CD34+ cells [2]; plerixafor alone
  Peak CD34+/μL (FC vs. baseline) Median (range): 15 (8-62) fold
  Tmax of peak CD34+ level Median (range): 8 (3-12) h
CD34+ cells [2]; plerixafor alone (n=14)
  Patients with peak CD34+ ≥20 cells/μL: 50%
  Patients with peak CD34+ ≥40 cells/μL: 14%
CD34+CD90+CD45RA− cells
  CD34+CD90+CD45RA− cells, median peak: 8 cells/μL
[3]; [7]
  CD3+ in graft, Median (range): 6.0 (2.7-13.0) ×10^8/kg
  CD4+ in graft, Median (range): 3.6 (2.0-9.4) ×10^8/kg
  CD8+ in graft, Median (range): 2.2 (0.5-5.0) ×10^8/kg
  CD19+ in graft, Median (range): 1.5 (0.2-7.4) ×10^8/kg
  CD34+ in graft, Median (range): 4.7 (0.9-9.6) ×10^6/kg
  CD56+ in graft, Median (range): 0.4 (0.0-1.1) ×10^8/kg
[3]; [8]
  CD3+ in graft, Median (range): 4.6 (1.5-7.8) ×10^8/kg
  CD4+ in graft, Median (range): 3.2 (1-5.7) ×10^8/kg
  CD8+ in graft, Median (range): 1.3 (0.4-3.4) ×10^8/kg
  CD34+ in graft, Median (range): 2.9 (1.2-6.3) ×10^6/kg
  CD56+ in graft, Median (range): 0.3 (0.1-1.0) ×10^8/kg
[3]; Devine et al, 2008, median yield of 1 LP, plerixafor N = 24
  CD19+ in graft, Median (range): 1.0 (0.2-2.4) ×10^8/kg

## Gro-β T N65D: Gro-β T with aspartic acid in place of asparagine at position 65, SEQ ID NO: 4 [reference compound]
[4]
  Potency (hematopoietic stem and progenitor cell mobilization) relative to Gro-β T: substantially greater than that of Gro-β T
